Measurements: patent publication US20100129347A1, “HERPES VIRUS INFECTION INHIBITOR, METHOD FOR INHIBITING INFECTION WITH HERPES VIRUS, AND USE THEREOF” (Osaka University, priority 2007, published 2010)

System: HSV-1
Assay: HSV-1-GFP infection of human PILR-transfected CHO-K1 cells with acyclovir as control (Example 3), GFP expression 18 hours later
Format: cell-based
Details: acyclovir 100 μM or 500 μM, or mAb 10 μg/ml, added 30 minutes before virus; FIG. 10
Method: HSV-1-GFP of 1.5×10^6 PFU was added to 5×10^4 CHO-K1 cells to which human PILR had been transfected, and expression of GFP was analyzed 18 hours later.
30 minutes before adding the virus, 100 μM or 500 μM of acyclovir, or 10 μg/ml of anti-human PILR mAb (M4) was added, and a ratio of infection with the virus was shown in FIG. 10 with a ratio of infection of cells to which nothing had been added (“control” in FIG. 10) being 100%.

## Nc1nc2c(ncn2COCCO)c(=O)[nH]1 [acyclovir]
  inhibition of infection with HSV (ratio of infection, control = 100%): did not inhibit infection
